Reference: US8853156B2, “Treatment for diabetes in patients inappropriate for metformin therapy” (Boehringer Ingelheim International GmbH, priority 2008, dated 2014)

Key:
[1] = male, human, in vivo, po
[2] = Pharmacokinetics of multiple oral doses once daily for 12 days in patients with type 2 diabetes

Structure (SMILES): CC#CCn1c(N2CCC[C@@H](N)C2)nc2c1c(=O)n(Cc1nc(C)c3ccccc3n1)c(=O)n2C [BI 1356]
- excreted unchanged in urine and feces [1]: 90 % of excreted radioactivity
- parent compound share of sample radioactivity in plasma [1]: 74 % of sample radioactivity
- excretion route and form ([2]; human, in vivo): primarily excreted unchanged via the bile
- main excretion organ ([2]; therapeutic oral dose levels): mainly excreted via the liver
